Data from publication PMC6522510 (Nature Communications, 2019).
Where two headings read alike, the source gives them in different places.

Assays:
Test in all cases: Secondary dose-response HTS, Cell Titer Glo; call rule not given here
Type in all cases: cell-based, human
MV4-11 = conditions: secondary high-throughput screen, MV4-11; for EC50: Homo sapiens, read-out: average effective concentration, MV4-11
M07e = conditions: secondary high-throughput screen; for EC50: Homo sapiens, M-07e, read-out: average effective concentration, M07e
CHRF288-11 = conditions: secondary high-throughput screen, CHRF288-11; for EC50: read-out: average effective concentration, CHRF288-11
CMK = conditions: CMK; for EC50: read-out: average effective concentration, CMK
U937 = conditions: secondary high-throughput screen, U937; for EC50: read-out: average effective concentration, U937
ML2 = conditions: secondary high-throughput screen, ML-2; for EC50: read-out: average effective concentration, ML-2
CMS = conditions: for EC50: read-out: average effective concentration, CMS
MOLM-13 = conditions: secondary high-throughput screen, MOLM-13; for EC50: Homo sapiens, read-out: average effective concentration, MOLM-13
[1] = secondary high-throughput screen
[2] = secondary high-throughput screen, CMS
[3] = Homo sapiens, secondary high-throughput screen
[4] = Homo sapiens, HTS, secondary high-throughput screen, CMS

Molecule | average effective concentration, MV4-11 (MV4-11) | average effective concentration, M07e (M07e; M07e) | average effective concentration, CHRF288-11 (CHRF288-11) | average effective concentration, CMK (CMK; [1]) | average effective concentration, U937 (U937) | average effective concentration, CMS (CMS; [2]) | average effective concentration, MOLM-13 (MOLM-13) | average effective concentration, ML-2 (ML2) | further results
C[n+]1c2cc(N)ccc2cc2ccc(N)cc21 | Inactive | Inactive | Inactive | Inactive | Inactive | Inactive | Inactive | – | EC50 (ML2): 7.7 µM
NC(=O)C1CCCc2c1[nH]c1ccc(Cl)cc21 (stereo not shown) | Inactive | Inactive | Inactive | Inactive | Inactive | Inactive | Inactive | Inactive | –
1-NA-PP1 [Compound 1-NA-PP1] | Inactive | – | Inactive | – | Inactive | Inactive | Inactive | Inactive | average effective concentration, M07e (M07e; […]): Inactive; EC50 (CMK; [1]): 2.2 µM
CN(N=O)C(=O)N[C@H]1C(O)O[C@H](CO)[C@@H](O)[C@@H]1O (mixture of isomers) [STREPTOZOSIN] | Inactive | Inactive | Inactive | Inactive | Inactive | Inactive | Inactive | Inactive | –
CC1CCCCCC(=O)c2c(O)cc(O)cc2CC(=O)O1 (single isomer, unassigned; (-)) [(-)-CURVULARIN] | Inactive | – | – | – | – | – | Inactive | – | average effective concentration, M07e (M07e; […]): Inactive; EC50 (CHRF288-11): 4.7 µM; EC50 (CMK; [1]): 1.5 µM; EC50 (U937): 0.82 µM; EC50 (CMS; [2]): 0.32 µM
O=C(O)c1ccnc(C(=O)O)c1 [2,4-PDAC] | Inactive | Inactive | Inactive | Inactive | Inactive | Inactive | Inactive | Inactive | –
CN(C)C/C=C/C(=O)Nc1cc2c(Nc3ccc(F)c(Cl)c3)ncnc2cc1O[C@H]1CCOC1 [AFATINIB] | – | – | – | – | – | – | – | – | EC50 (MV4-11): 5.4 µM; EC50 (M07e; M07e): > 10 µM; EC50 (CHRF288-11; Homo sapiens, HTS): 6.9 µM; EC50 (CMK; [3]): 3.6 µM; EC50 (U937; Homo sapiens, U-937): 6.2 µM; EC50 (ML2; Homo sapiens): 7 µM; EC50 (CMS; [4]): 8.6 µM; EC50 (MOLM-13): 5.6 µM
COCCCn1c(N)c(C(=O)NC2CCCC2)c2nc3ccccc3nc21 [CAY10591] | Inactive | Inactive | Inactive | Inactive | Inactive | Inactive | Inactive | Inactive | –
O=C(NC(NC(=S)Nc1ccc(F)c([N+](=O)[O-])c1)C(Cl)(Cl)Cl)C(c1ccccc1)c1ccccc1 (stereo not shown) [CGK 733] | Inactive | Inactive | Inactive | Inactive | Inactive | Inactive | Inactive | Inactive | –
Cc1cc(C2CCCCC2)n(O)c(=O)c1 [CICLOPIROX] | – | – | – | – | – | – | – | – | EC50 (MV4-11): 5.2 µM; EC50 (M07e; M07e): 7.7 µM; EC50 (CHRF288-11; Homo sapiens, HTS): 7.9 µM; EC50 (CMK; [3]): 4.7 µM; EC50 (U937; Homo sapiens, U-937): 7.5 µM; EC50 (ML2; Homo sapiens): 2.4 µM; EC50 (CMS; [4]): 3.9 µM; EC50 (MOLM-13): 3.4 µM
CC1(COc2ccc3c(c2)ncn3-c2ccc3cccc(N4CCC(N)CC4)c3n2)COC1 [CRENOLANIB] | – | – | – | – | – | – | – | – | EC50 (MV4-11): 0.072 µM; EC50 (M07e; M07e): > 10 µM; EC50 (CHRF288-11; Homo sapiens, HTS): 0.77 µM; EC50 (CMK; Homo sapiens): 6.6 µM; EC50 (U937; Homo sapiens, U-937): 5 µM; EC50 (ML2; Homo sapiens): 3.6 µM; EC50 (CMS; Homo sapiens, HTS): 8.2 µM; EC50 (MOLM-13): 0.1 µM
Nc1ncnc2c1nc(Cl)n2[C@@H]1O[C@H](CO)[C@@H](O)[C@H]1O [Compound 8-CHLOROADENOSINE] | – | – | – | – | – | – | – | – | EC50 (MV4-11): 0.25 µM; EC50 (M07e; M07e): 0.001 µM; EC50 (CHRF288-11; Homo sapiens, HTS): 1.2 µM; EC50 (U937; Homo sapiens, U-937): 1 µM; EC50 (ML2; Homo sapiens): 2.8 µM; EC50 (CMS; Homo sapiens, HTS): 4.4 µM; EC50 (MOLM-13): 2.2 µM
NC1CC1c1cc(F)cc(F)c1OCc1ccccc1 (stereo not shown) [Compound S2101] | Inactive | Inactive | Inactive | – | Inactive | Inactive | Inactive | Inactive | –
OCCN1CCN(CCCN2c3ccccc3Sc3ccc(C(F)(F)F)cc32)CC1 [FLUFENAZINE] | Inactive | Inactive | Inactive | Inactive | Inactive | Inactive | Inactive | – | –
O=C(O)c1ccc(O)c2ncccc12 [IOX 1] | Inactive | Inactive | Inactive | – | Inactive | Inactive | Inactive | Inactive | –
